Common to all, as to assay type: in vivo
One data set concerns Scirpus juncoides. Description: Paddy herbicidal activity test. Particulars: irrigated pot, 30 days. As to the method: (§1) 1. Paddy Herbicidal Activity Test Rice paddy soil was filled into a 1/10000 are pot followed by the addition of suitable amounts of water and chemical fertilizer, kneading, seeding with Echinochloa crus-galli, Monochoria vaginalis and Scirpus juncoides and maintaining in an irrigated state at a water depth of 3 cm. Wettable powders of Target Compound (I) shown in Table 1 prepared in compliance with the preparation examples were diluted with a suitable amount of water, rice plants in the 2.0 leaf stage were transplanted during 3.5 leaf stage of Echinochloa crus-galli, and treated by dropping in chemical in the prescribed amount per 10 are using a pipette. After treating for 30 days in a glass greenhouse at an average atmospheric temperature of 30° C., the herbicidal efficacy thereof was investigated. Evaluation of herbicidal efficacy was carried out by comparing growth inhibition rate (%) with an untreated group, while evaluation of phytotoxicity was carried out by comparing growth inhibition rate (%) with the state of a complete eradication group, and were evaluated at 11 levels indicated below.

A further data set relates to Monochoria vaginalis. Briefly: Paddy herbicidal activity test. Conditions: irrigated pot, 30 days. As to the method:
as §1

For another data set, the system named is Echinochloa crus-galli. Description: Paddy herbicidal activity test. Particulars: irrigated pot, treated at 3.5 leaf stage of Echinochloa crus-galli, 30 days. The protocol:
as §1

The next data set concerns Galinsoga parviflora. Description: Weed foliar treatment test (Test 4, 4.0 to 5.0 leaf stage). Conditions: 10 g a.i./10 a; foliar spray at 4.0 to 5.0 leaf stage of Digitaria ciliaris; 20 days. The protocol:
(§2) Field soil was filled into a 1/4500 are pot followed by seeding with Digitaria ciliaris and Galinsoga parviflora, covering with soil and cultivating in a glass greenhouse at an average atmospheric temperature of 25° C.
(§3) Wettable powders of Target Compound (I) shown in Table 1 prepared in compliance with the preparation examples were diluted with water to the prescribed amount of chemical and uniformly sprayed onto the weeds using 100 liters of sprayed water per 10 are when Digitaria ciliaris had grown to the 4.0 to 5.0 leaf stage (plant height: 10 cm to 15 cm).
(§4) After treating for 20 days in a glass greenhouse at an average atmospheric temperature of 25° C., the herbicidal efficacy thereof was investigated.
(§5) Evaluation of herbicidal efficacy was carried out in the same manner as the above-mentioned Test Example 1.

The test system of data set [1] is Digitaria ciliaris. Described as above. Conditions: 10 g a.i./10 a; foliar spray at 4.0 to 5.0 leaf stage of Digitaria ciliaris (plant height 10 cm to 15 cm); 20 days. As to the method: as §2, §3, §4, §5
For a further data set, the system named is Oryza sativa. Description: Paddy herbicidal activity test, phytotoxicity to transplanted rice. Particulars: rice transplanted in 2.0 leaf stage, 30 days. As to the method: as §1
For data set [2], the system named is Chenopodium album. Briefly: Farming soil treatment test. Particulars: soil surface spray prior to weed growth, 30 days. As to the method: (§6) Field soil was filled into a 1/6000 are pot followed by seeding with Digitaria ciliaris, Chenopodium album and Amaranthus retroflexus and covering with soil. Wettable powders of compounds of formula (I) shown in Table 1 prepared in compliance with the preparation examples were diluted with water to the prescribed amount of chemical and uniformly sprayed onto each soil surface layer using 100 liters of sprayed water per 10 are prior to weed growth following seeding. After treating for 30 days in a glass greenhouse at an average atmospheric temperature of 30° C., the herbicidal efficacy thereof was investigated. Evaluation of herbicidal efficacy was carried out in the same manner as the above-mentioned Test Example 1.

Data set [3] has as its system Amaranthus retroflexus. Briefly: Farming soil treatment test. Particulars: soil surface spray prior to weed growth, 30 days. As to the method: as §6
In data set [4] the test system is Digitaria ciliaris. Description: Farming soil treatment test. Particulars: soil surface spray prior to weed growth, 30 days. The protocol:
as §6

Data set [5] concerns Chenopodium album. Description: Weed foliar treatment test (Test 3, 1.0 to 2.0 leaf stage). Particulars: foliar spray at 1.0 to 2.0 leaf stage of Digitaria ciliaris, 3 weeks. As to the method: (§7) Soil was filled into a 1/6000 are pot followed by seeding with Digitaria ciliaris, Chenopodium album and Amaranthus retroflexus, covering with soil, and cultivating in a glass greenhouse at an average atmospheric temperature of 25° C. Wettable powders of Target Compound (I) shown in Table 1 prepared in compliance with the preparation examples were diluted with water to the prescribed amount of chemical and uniformly sprayed onto the weeds using 150 liters of sprayed water per 10 are when Digitaria ciliaris had grown to the 1.0 to 2.0 leaf stage. After treating for 3 weeks in a glass greenhouse at an average atmospheric temperature of 25° C., the herbicidal efficacy thereof was investigated. Evaluation of herbicidal efficacy was carried out in the same manner as the above-mentioned Test Example 1.

Data set [6] has as its system Amaranthus retroflexus. Described as above. Conditions: foliar spray at 1.0 to 2.0 leaf stage of Digitaria ciliaris, 3 weeks. The protocol:
as §7

The subject of data set [7] is Digitaria ciliaris. Described as above. Conditions: foliar spray at 1.0 to 2.0 leaf stage of Digitaria ciliaris, 3 weeks. The protocol:
as §7

Molecules are shown by their SMILES.

On to `N#Cc1cnn(-c2nn3c(c2Br)CCCC3)c1/C=C/c1ccccn1` [Compound 3.44, reference compound], for which the “herbicidal efficacy, Scirpus juncoides” value is 0 (0% to less than 10% (growth inhibition rate)) with Scirpus juncoides (1 g a.i./10 a) and 1 (10% to less than 20%) in the data set with Scirpus juncoides (5 g a.i./10 a). Besides, the “herbicidal efficacy, Monochoria vaginalis” value in the data set on Monochoria vaginalis (1 g a.i./10 a) and with Monochoria vaginalis (5 g a.i./10 a) was 2 (20% to less than 30%) in each case. The “herbicidal efficacy, Echinochloa crus-galli” value with Echinochloa crus-galli (1 g a.i./10 a) is recorded as 1 (10% to less than 20%); in the data set with Echinochloa crus-galli (5 g a.i./10 a), 2 (20% to less than 30%). Also, the “herbicidal efficacy, Galinsoga parviflora” value in the data set with Galinsoga parviflora is given as 0 (0% to less than 10% (growth inhibition rate)). In addition, the “herbicidal efficacy, Digitaria ciliaris” value in the data set on Digitaria ciliaris [1] is 0 (0% to less than 10% (growth inhibition rate)); in the data set on Digitaria ciliaris [4] (5 g a.i./10 a), 0 (0% to less than 10% (growth inhibition rate)); in the data set on Digitaria ciliaris [4] (10 g a.i./10 a), 1 (10% to less than 20%); in the data set on Digitaria ciliaris [7] (5 g a.i./10 a), 0 (0% to less than 10% (growth inhibition rate)); in the data set on Digitaria ciliaris [7] (10 g a.i./10 a) it was 0 (0% to less than 10% (growth inhibition rate)). In addition, the “phytotoxicity, Oryza sativa” value in the data set on Oryza sativa (1 g a.i./10 a) is reported as 0 (0% to less than 10% (growth inhibition rate)); with Oryza sativa (5 g a.i./10 a), 1 (10% to less than 20%). In addition, the “herbicidal efficacy, Chenopodium album” value was 2 (20% to less than 30%) with Chenopodium album [2] (5 g a.i./10 a), 3 (30% to less than 40%) with Chenopodium album [2] (10 g a.i./10 a), 1 (10% to less than 20%) in the data set with Chenopodium album [5] (5 g a.i./10 a) and 2 (20% to less than 30%) in the data set with Chenopodium album [5] (10 g a.i./10 a). For the same compound, the “herbicidal efficacy, Amaranthus retroflexus” value with Amaranthus retroflexus [3] (5 g a.i./10 a) is 0 (0% to less than 10% (growth inhibition rate)); in the data set with Amaranthus retroflexus [3] (10 g a.i./10 a) it was 2 (20% to less than 30%); with Amaranthus retroflexus [6] (5 g a.i./10 a) it was 0 (0% to less than 10% (growth inhibition rate)); with Amaranthus retroflexus [6] (10 g a.i./10 a), 0 (0% to less than 10% (growth inhibition rate)).
Turning to `N#Cc1cnn(-c2nn3c(c2Cl)CCCC3)c1N=Cc1ccncc1` [Compound 23], the “herbicidal efficacy, Scirpus juncoides” value with Scirpus juncoides (1 g a.i./10 a) and with Scirpus juncoides (5 g a.i./10 a) was 10 (100%) throughout. For the same compound, the “herbicidal efficacy, Monochoria vaginalis” value in the data set with Monochoria vaginalis (1 g a.i./10 a) and in the data set with Monochoria vaginalis (5 g a.i./10 a) was 10 (100%) throughout. The “herbicidal efficacy, Echinochloa crus-galli” value in the data set with Echinochloa crus-galli (1 g a.i./10 a) and in the data set with Echinochloa crus-galli (5 g a.i./10 a) was 10 (100%) each time. In addition, in the data set with Galinsoga parviflora, the “herbicidal efficacy, Galinsoga parviflora” value is listed as 10 (100%). The “herbicidal efficacy, Digitaria ciliaris” value in the data set on Digitaria ciliaris [1] is given as 9 (90% to less than 100%); in the data set on Digitaria ciliaris [4] (5 g a.i./10 a) it was 9 (90% to less than 100%); in the data set with Digitaria ciliaris [4] (10 g a.i./10 a) it was 10 (100%); in the data set with Digitaria ciliaris [7] (5 g a.i./10 a) it was 9 (90% to less than 100%); in the data set on Digitaria ciliaris [7] (10 g a.i./10 a) it was 10 (100%). Moreover, the results for the “phytotoxicity, Oryza sativa” value in the data set on Oryza sativa (1 g a.i./10 a) and with Oryza sativa (5 g a.i./10 a) were 0 (0% to less than 10% (growth inhibition rate)) and 1 (10% to less than 20%), respectively. The “herbicidal efficacy, Chenopodium album” value with Chenopodium album [2] (5 g a.i./10 a), in the data set on Chenopodium album [2] (10 g a.i./10 a), with Chenopodium album [5] (5 g a.i./10 a) and with Chenopodium album [5] (10 g a.i./10 a) was 10 (100%) in each case. Moreover, the “herbicidal efficacy, Amaranthus retroflexus” value in the data set with Amaranthus retroflexus [3] (5 g a.i./10 a) is 9 (90% to less than 100%); in the data set with Amaranthus retroflexus [3] (10 g a.i./10 a) it was 10 (100%); in the data set on Amaranthus retroflexus [6] (5 g a.i./10 a), 9 (90% to less than 100%); with Amaranthus retroflexus [6] (10 g a.i./10 a), 10 (100%).
For the compound `COC=Nc1c(C#N)cnn1-c1nn2c(c1Cl)CCCC2` [Compound 33], the “herbicidal efficacy, Scirpus juncoides” value with Scirpus juncoides (1 g a.i./10 a) and with Scirpus juncoides (5 g a.i./10 a) was 9 (90% to less than 100%) throughout. Besides, the “herbicidal efficacy, Monochoria vaginalis” value in the data set with Monochoria vaginalis (1 g a.i./10 a) is recorded as 9 (90% to less than 100%); with Monochoria vaginalis (5 g a.i./10 a) it was 10 (100%). The “herbicidal efficacy, Echinochloa crus-galli” value in the data set with Echinochloa crus-galli (1 g a.i./10 a) and in the data set on Echinochloa crus-galli (5 g a.i./10 a) was 9 (90% to less than 100%) in each case. The “herbicidal efficacy, Galinsoga parviflora” value in the data set with Galinsoga parviflora is given as 10 (100%). In addition, the “herbicidal efficacy, Digitaria ciliaris” value in the data set on Digitaria ciliaris [1], with Digitaria ciliaris [4] (5 g a.i./10 a), in the data set with Digitaria ciliaris [4] (10 g a.i./10 a), in the data set with Digitaria ciliaris [7] (5 g a.i./10 a) and in the data set on Digitaria ciliaris [7] (10 g a.i./10 a) was 9 (90% to less than 100%) each time. Further, the “phytotoxicity, Oryza sativa” value in the data set on Oryza sativa (1 g a.i./10 a) is listed as 0 (0% to less than 10% (growth inhibition rate)); in the data set with Oryza sativa (5 g a.i./10 a), 1 (10% to less than 20%). Further, the “herbicidal efficacy, Chenopodium album” value in the data set on Chenopodium album [2] (5 g a.i./10 a) is listed as 9 (90% to less than 100%); with Chenopodium album [2] (10 g a.i./10 a), 9 (90% to less than 100%); with Chenopodium album [5] (5 g a.i./10 a) it was 10 (100%); in the data set on Chenopodium album [5] (10 g a.i./10 a) it was 10 (100%). Further, the “herbicidal efficacy, Amaranthus retroflexus” value in the data set with Amaranthus retroflexus [3] (5 g a.i./10 a), in the data set with Amaranthus retroflexus [3] (10 g a.i./10 a), in the data set on Amaranthus retroflexus [6] (5 g a.i./10 a) and in the data set on Amaranthus retroflexus [6] (10 g a.i./10 a) was 9 (90% to less than 100%) each time.

For the origin of these results see patent publication US10165777B2, “Substituted pyrazolylpyrazole derivative and use of same as herbicide” (KYOYU AGRI CO., LTD., priority 2015, dated 2019).
